Assays:
[1] = target: mutEGFR (D770_N771insSVD) (Homo sapiens, UniProt P00533, INS767SVD); experiment: Exon20-mutant-EGFR (D770_N771insSVD) TR-FRET kinase assay; format: biochemical; settings: 2 mM ATP, 15 min preincubation
Excerpt: Inhibitory activity of compounds of the present invention against an Epidermal Growth Factor Receptor (EGFR) with an insertion of the amino acids sequence SVD between D770 and N771 (SEQ ID No. 5) was quantified employing the TR-FRET based kinase activity assay as described in the following paragraphs.
A recombinant fusion protein of N-terminal Glutathion-S-Transferase (GST) and a fragment of human EGFR variant (amino acids R669 to A1210 with insertion of the amino acids sequence SVD between D770 and N771 (SEQ ID No. 5) (“EGFR ins SVD”), expressed in Sf9 insect cells and purified via affinity chromatography using Glutathion Sepharose as described above, was used as a kinase. As substrate for the kinase reaction the biotinylated peptide biotin-Ahx-AEEEEYFELVAKKK (C-terminus in amide form) (SEQ ID No. 6) was used which can be purchased e.g. form the company Biosynthan GmbH (Berlin-Buch, Germany).
For the assay 50 nl of a 100-fold concentrated solution of the test compound in DMSO was pipetted into either a black low volume 384 well microtiter plate or a black 1536 well microtiter plate (both Greiner Bio-One, Frickenhausen, Germany), 2 μl of a solution of EGFR in aqueous assay buffer [50 mM Hepes pH 7.0, 10 mM MgCl2, 1 mM dithiothreitol, 0.5 mM EGTA, 0.3 mM activated sodium ortho-vanadate, 0.005% (w/v) bovine serum albumin, 0.005% (v/v) Tween-20] were added and the mixture was incubated for 15 min at 22° C. to allow pre binding of the test compounds to the enzyme before the start of the kinase reaction. […] The concentration of EGFR was adjusted depending of the activity of the enzyme lot and was chosen appropriate to have the assay in the linear range, typical concentration was 15 pg/μl. The reaction was stopped by the addition of 3 μl of a solution of HTRF detection reagents (83.3 nM streptavidine-XL665 [Cisbio Bioassays, Codolet, France] and 1.67 nM PT66-Tb-Cryptate, a terbium-cryptate labelled anti-phospho-tyrosine antibody from Cisbio Bioassays [instead of the PT66 Tb cryptate PT66 Eu Chelate from Perkin Elmer can also be used]) in an aqueous EDTA-solution (133.3 mM EDTA, 0.2% (w/v) bovine serum albumin in 50 mM HEPES pH 7.5).
The resulting mixture was incubated 1 h at 22° C. to allow the binding of the biotinylated phosphorylated peptide to the streptavidine-XL665 and the PT66-Tb-Cryptate. Subsequently, the amount of phosphorylated substrate was evaluated by measurement of the resonance energy transfer from the PT66-Tb-Cryptate to the streptavidine-XL665. Therefore, the fluorescence emissions at 620 nm and 665 nm after excitation at 337 nm were measured in a HTRF reader, e.g. a Pherastar (BMG Labtechnologies, Offenburg, Germany) or a Viewlux (Perkin-Elmer). The ratio of the emissions at 665 nm and at […] was taken as the measure for the amount of phosphorylated substrate. The data were normalised (enzyme reaction without inhibitor=0% inhibition, all other assay components but no enzyme=100% inhibition).

[2] = target: mutEGFR (D770_N771insNPG, T790); experiment: mutEGFR (D770_N771insNPG, T790) kinase assay; format: biochemical, human
Sequence of mutEGFR (D770_N771insNPG, T790) (P00533 with tags, fused parts or gaps INS770NPG limits assumed): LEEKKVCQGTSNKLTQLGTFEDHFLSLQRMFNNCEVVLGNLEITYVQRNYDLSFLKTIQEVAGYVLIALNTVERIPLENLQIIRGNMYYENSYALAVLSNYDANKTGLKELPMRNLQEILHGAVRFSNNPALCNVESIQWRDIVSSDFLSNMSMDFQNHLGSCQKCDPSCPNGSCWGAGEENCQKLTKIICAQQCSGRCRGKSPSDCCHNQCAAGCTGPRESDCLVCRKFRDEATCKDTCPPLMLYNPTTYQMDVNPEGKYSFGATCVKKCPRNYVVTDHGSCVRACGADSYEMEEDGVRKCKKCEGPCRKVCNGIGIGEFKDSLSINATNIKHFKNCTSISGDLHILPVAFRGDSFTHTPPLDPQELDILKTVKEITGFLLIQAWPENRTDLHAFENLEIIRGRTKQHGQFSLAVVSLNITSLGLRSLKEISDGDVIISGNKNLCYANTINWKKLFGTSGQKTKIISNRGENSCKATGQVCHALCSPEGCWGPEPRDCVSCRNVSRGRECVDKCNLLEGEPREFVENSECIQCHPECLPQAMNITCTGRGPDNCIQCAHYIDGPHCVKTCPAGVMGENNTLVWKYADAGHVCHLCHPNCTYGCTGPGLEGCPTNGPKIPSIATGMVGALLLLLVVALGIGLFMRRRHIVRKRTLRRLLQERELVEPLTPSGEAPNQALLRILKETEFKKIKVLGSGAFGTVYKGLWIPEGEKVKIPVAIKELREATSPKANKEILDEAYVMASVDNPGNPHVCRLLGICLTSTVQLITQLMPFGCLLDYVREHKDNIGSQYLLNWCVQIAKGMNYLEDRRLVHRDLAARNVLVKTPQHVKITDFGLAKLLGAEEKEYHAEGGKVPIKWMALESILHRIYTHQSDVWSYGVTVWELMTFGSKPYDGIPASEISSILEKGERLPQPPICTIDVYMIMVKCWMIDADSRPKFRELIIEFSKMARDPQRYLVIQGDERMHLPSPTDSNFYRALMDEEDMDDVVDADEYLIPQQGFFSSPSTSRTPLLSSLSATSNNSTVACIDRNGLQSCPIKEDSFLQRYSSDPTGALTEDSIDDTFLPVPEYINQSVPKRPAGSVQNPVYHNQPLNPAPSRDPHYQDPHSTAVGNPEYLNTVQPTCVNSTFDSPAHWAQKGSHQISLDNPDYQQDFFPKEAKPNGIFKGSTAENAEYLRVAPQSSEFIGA

BA/F3 (insSVD) cells = experiment: Ba/F3 cell survival assay (Cell Titer-Glo), EGFR-insSVD; format: cell-based; settings: without IL-3, with EGF
Procedure: 293T cells from ATCC were transfected with pBABEpuro expression constructs for WT EGFR or EGFR-insSVD, or EGFR-insSVD T790M, and pCL-Eco packaging vector using Fugene-6 transfection reagent from Promega. Plates were incubated at 37° C. for 48 h. Retrovirus was harvested by filtering the media supernatant through a 0.45 μm filter.
Ba/F3 cells purchased from DSMZ were grown in RPMI+10% FBS+10 ng/mL IL-3 and infected with filtered retroviral supernatant at a 1:2 dilution. Polybrene was added to a concentration of 8 μg/mL, plates were spun for 90 min, and incubated for 16 h at 37° C. 2 μg/mL puromycin was added to the infected cells 24 h after infection and cells were continually grown in the presence of puromycin and 10 ng/mL IL-3. Following stably expressing Ba/F3 cell lines were generated: Ba/F3-EGFR-WT, Ba/F3-EGFR-insSVD, Ba/F3-EGFR-insSVD T790M, (Ba/F3-vector-control).
For cell survival assays, Ba/F3 cells were grown to a density of 1-2 million cells per mL, spun down and resuspended in media without IL-3, and replated at a concentration of 200,000-500,000 cells per mL. The cells ectopically expressing WT EGFR, EGFR-insSVD, or EGFR-insSVD T790M were plated with 10 ng/mL Millipore Culture grade EGF. The cells ectopically expressing pBABEpuro empty vector were plated with 10 ng/mL IL-3.
2 days later, cells were plated in 50 μL in a 384 well plate at a concentration of 4000 cells per well for cells assayed in the absence of IL-3 and 2000 cells per well for cells assayed in the presence of IL-3. 100 nL of compound was added to each well using a 100 nL pin head, and plates were incubated at 37° C. for 48 h.
Cell viability was measured by adding 20 μL of Cell Titer-Glo Luminescent Cell Viability Reagent diluted 1:3 in PBS. Plates were sealed with Perkin Elmer Top-Seal, inverted several times to mix, and immediately centrifuged at 1000 rpm for 2 min. Plates were incubated in low light conditions for 8-10 min and luminescence was measured.

Sequence of mutEGFR (D770_N771insSVD) (P00533 with tags, fused parts or gaps INS767SVD limits assumed): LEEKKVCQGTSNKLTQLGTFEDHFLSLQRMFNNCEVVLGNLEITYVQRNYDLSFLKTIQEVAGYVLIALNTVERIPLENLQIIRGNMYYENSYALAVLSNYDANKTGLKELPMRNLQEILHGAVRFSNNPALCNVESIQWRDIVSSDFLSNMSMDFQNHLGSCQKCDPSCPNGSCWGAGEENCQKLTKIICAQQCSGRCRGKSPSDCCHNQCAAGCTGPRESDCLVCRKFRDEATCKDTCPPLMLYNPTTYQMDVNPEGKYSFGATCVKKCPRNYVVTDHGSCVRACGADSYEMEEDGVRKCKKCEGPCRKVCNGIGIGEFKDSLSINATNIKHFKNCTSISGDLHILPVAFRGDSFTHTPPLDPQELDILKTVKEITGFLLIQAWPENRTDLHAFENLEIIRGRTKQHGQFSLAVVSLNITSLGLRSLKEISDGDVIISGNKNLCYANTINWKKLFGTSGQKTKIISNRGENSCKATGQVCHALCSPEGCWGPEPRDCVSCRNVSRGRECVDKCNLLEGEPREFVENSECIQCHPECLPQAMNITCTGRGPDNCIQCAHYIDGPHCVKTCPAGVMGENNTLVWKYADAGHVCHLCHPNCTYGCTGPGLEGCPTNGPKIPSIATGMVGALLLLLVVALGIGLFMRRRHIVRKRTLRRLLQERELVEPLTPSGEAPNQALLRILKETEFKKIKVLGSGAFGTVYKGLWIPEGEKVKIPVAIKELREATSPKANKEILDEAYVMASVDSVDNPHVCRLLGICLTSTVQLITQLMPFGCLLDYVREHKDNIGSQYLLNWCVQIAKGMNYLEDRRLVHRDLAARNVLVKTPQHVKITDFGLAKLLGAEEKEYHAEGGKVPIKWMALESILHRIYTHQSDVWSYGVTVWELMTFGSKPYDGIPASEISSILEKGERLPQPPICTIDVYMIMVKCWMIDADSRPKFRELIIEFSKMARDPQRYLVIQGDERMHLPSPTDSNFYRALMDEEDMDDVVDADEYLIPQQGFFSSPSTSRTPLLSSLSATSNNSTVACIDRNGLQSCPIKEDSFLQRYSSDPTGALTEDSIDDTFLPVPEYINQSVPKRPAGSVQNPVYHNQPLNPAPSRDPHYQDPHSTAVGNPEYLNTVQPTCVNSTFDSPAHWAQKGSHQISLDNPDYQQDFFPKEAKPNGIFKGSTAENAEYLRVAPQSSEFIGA

Compound	IC50 [1] [nM]	IC50 [2] [nM]	IC50 (BA/F3 (insSVD) cells; Mus musculus, BaF3, 48 h) [nM]	IC50 (BA/F3 (insSVD) cells; 48 h) [nM]
C=CC(=O)N(C)CCOc1cnccc1-c1[nH]c2cccnc2c1-c1cc(C)ccc1F [Example 47, N-[2-({4-[3-(2-fluoro-5-methylphenyl)-1H-pyrrolo[3,2-b]pyridin-2-yl]pyridin-3-yl}oxy)ethyl]-N-methylprop-2-enamide]	32.8	19.6	493	
C=CS(=O)(=O)N(C)CCOc1cnccc1-c1[nH]c2cccnc2c1-c1cc(C(F)(F)F)ccc1F [Example 59, N-{2-[(4-{3-[2-fluoro-5-(trifluoromethyl)phenyl]-1H-pyrrolo[3,2-b]pyridin-2-yl}pyridin-3-yl)oxy]ethyl}-N-methylethenesulfonamide]	0.499	1.6	76.4	
C=CS(=O)(=O)N1CCC(Oc2cnccc2-c2[nH]c3cccnc3c2-c2cc(C)ccc2F)C1 (racemic) [Example 126, 2-(3-{[(3RS)-1-(ethenesulfonyl)pyrrolidin-3-yl]oxy}pyridin-4-yl)-3-(2-fluoro-5-methylphenyl)-1H-pyrrolo[3,2-b]pyridine]	13.8	39.8	807	
C=CS(=O)(=O)N1CC[C@H]1COc1cnccc1-c1[nH]c2cccnc2c1-c1cccc(C(F)(F)F)c1 (single isomer, unassigned) [Example 144]	5.12	19	1520	
CN(C)C/C=C/C(=O)N1CCOCC1COc1cnccc1-c1[nH]c2cccnc2c1-c1cc(Cl)ccc1F (stereo not drawn) [Example 152, (2E)-1-{3-[({4-[3-(5-chloro-2-fluorophenyl)-1H-pyrrolo[3,2-b]pyridin-2-yl]pyridin-3-yl}oxy)methyl]morpholin-4-yl}-4-(dimethylamino)but-2-en-1-one]	164	353	1880	
CN(C)C/C=C/C(=O)N1CCOCC1COc1cnccc1-c1[nH]c2cccnc2c1-c1ccccc1 (stereo not drawn) [Example 150, (2E)-4-(dimethylamino)-1-[3-({[4-(3-phenyl-1H-pyrrolo[3,2-b]pyridin-2-yl)pyridin-3-yl]oxy}methyl)morpholin-4-yl]but-2-en-1-one]	4660	> 20000	9810	
C=C(F)C(=O)N1CCC[C@H]1COc1cnccc1-c1[nH]c2cccnc2c1-c1ccccc1 [Example 91, 2-fluoro-1-[(2S)-2-({[4-(3-phenyl-1H-pyrrolo[3,2-b]pyridin-2-yl)pyridin-3-yl]oxy}methyl)pyrrolidin-1-yl]prop-2-en-1-one]	77.3	769	1470	
C=CC(=O)N1CCC[C@H]1COc1cnccc1-c1[nH]c2c(C)ccnc2c1-c1ccccc1 [Example 135, 1-[(2S)-2-({[4-(7-methyl-3-phenyl-1H-pyrrolo[3,2-b]pyridin-2-yl)pyridin-3-yl]oxy}methyl)pyrrolidin-1-yl]prop-2-en-1-one]	0.589	1.83	16.1	
C=CC(=O)N1CCC(Oc2cnccc2-c2[nH]c3cccnc3c2-c2cccc(C(F)(F)F)c2)C1 (racemic) [Example 122, 1-{(3RS)-3-[(4-{3-[3-(trifluoromethyl)phenyl]-1H-pyrrolo[3,2-b]pyridin-2-yl}pyridin-3-yl)oxy]pyrrolidin-1-yl}prop-2-en-1-one]	123	775	2590	
C=CS(=O)(=O)N1CC[C@@]1(C)COc1cnccc1-c1[nH]c2cccnc2c1-c1ccccc1 [Example 146, 2-(3-{[(2S)-1-(ethenesulfonyl)-2-methylazetidin-2-yl]methoxy}pyridin-4-yl)-3-phenyl-1H-pyrrolo[3,2-b]pyridine]	32.7	265	1240	
C=CS(=O)(=O)N1CCC[C@H]1COc1cnccc1-c1[nH]c2c(C)ccnc2c1-c1cc(Cl)ccc1F [Example 138, 3-(5-chloro-2-fluorophenyl)-2-(3-{[(2S)-1-(ethenesulfonyl)pyrrolidin-2-yl]methoxy}pyridin-4-yl)-7-methyl-1H-pyrrolo[3,2-b]pyridine]	0.582	1.36	27	
C=CS(=O)(=O)N1CCC[C@H]1COc1cnccc1-c1[nH]c2cccnc2c1-c1ccc(F)c(OC(F)F)c1 [Example 105, 3-[3-(difluoromethoxy)-4-fluorophenyl]-2-(3-{[(2S)-1-(ethenesulfonyl)pyrrolidin-2-yl]methoxy}pyridin-4-yl)-1H-pyrrolo[3,2-b]pyridine]	0.207	0.537	31.1	
C=CC(=O)N1C[C@@H](N(C)CCN(C)C)C[C@H]1COc1cnccc1-c1[nH]c2cccnc2c1-c1ccccc1 (single isomer, unassigned) [Example 132]	9.32	27.5		184
C=CC(=O)N1CCC[C@H]1COc1cnccc1-c1[nH]c2c(C)ccnc2c1-c1cc(Cl)ccc1F [Example 137, 1-{(2S)-2-[({4-[3-(5-chloro-2-fluorophenyl)-7-methyl-1H-pyrrolo[3,2-b]pyridin-2-yl]pyridin-3-yl}oxy)methyl]pyrrolidin-1-yl}prop-2-en-1-one]	0.724	1.55	25.1	
C=CC(=O)N1CCC[C@H]1COc1cnccc1-c1[nH]c2cccnc2c1-c1cccc(F)c1F [Example 86, 1-{(2S)-2-[({4-[3-(2,3-difluorophenyl)-1H-pyrrolo[3,2-b]pyridin-2-yl]pyridin-3-yl}oxy)methyl]pyrrolidin-1-yl}prop-2-en-1-one]	0.911	3.99	67	
C=CS(=O)(=O)N(C)CCOc1cnccc1-c1[nH]c2cccnc2c1-c1cc(Cl)ccc1Cl [Example 71, N-[2-({4-[3-(2,5-dichlorophenyl)-1H-pyrrolo[3,2-b]pyridin-2-yl]pyridin-3-yl}oxy)ethyl]-N-methylethenesulfonamide]	5.37	8.59	404	
C=CS(=O)(=O)N(C)CCOc1cnccc1-c1[nH]c2cccnc2c1-c1cc(OC)ccc1F [Example 73, N-[2-({4-[3-(2-fluoro-5-methoxyphenyl)-1H-pyrrolo[3,2-b]pyridin-2-yl]pyridin-3-yl}oxy)ethyl]-N-methylethenesulfonamide]	8.7	27.9	555	
C=CC(=O)N(C)CCOc1cnccc1-c1[nH]c2cccnc2c1-c1cccc(C(C)C)c1 [Example 55, N-methyl-N-{2-[(4-{3-[3-(propan-2-yl)phenyl]-1H-pyrrolo[3,2-b]pyridin-2-yl}pyridin-3-yl)oxy]ethyl}prop-2-enamide]	118	598	3050	

Source: US20260035365A1, “1H-PYRROLO[3,2-B]PYRIDINE DERIVATIVES AS IRREVERSIBLE INHIBITORS OF MUTANT EGFR FOR THE TREATMENT OF CANCER” (Bayer Aktiengesellschaft, priority 2022, published 2026)
